From article PMC6301270 (MedChemComm, 2018)

Test system: T.b. brucei (strain 427) bloodstream form parasites
Assay: T.b. brucei single concentration screen (10 μM)
Conditions: Trypanosoma brucei, read-out: T.b.brucei % viability (10 µM)

Row | SMILES | viability at 10 µM [%]
1 | CC(C)(C)OC(=O)N1CCN(c2nccc(-c3ccc(-c4ccc(Cl)cc4)s3)n2)CC1 [MMV688416, CC(C)(C)OC(=O)N1CCN(CC1)c2nccc(n2)c3ccc(s3)c4ccc(Cl)cc4] | 94
2 | Cn1ccnc1CNCCS(=O)(=O)c1cccc(Nc2ccc(-c3cccc(F)c3)cn2)c1 [MMV688466, Cn1ccnc1CNCCS(=O)(=O)c2cccc(Nc3ccc(cn3)c4cccc(F)c4)c2] | 87
3 | Nc1ncnc2[nH]nc(Cc3cccc4ccccc34)c12 [MMV688469, Nc1ncnc2[nH]nc(Cc3cccc4ccccc34)c12] | 98
4 | CS(=O)(=O)N1CCC(CCn2nc(Cc3cccc4ccccc34)c3c(N)ncnc32)CC1 [MMV688470, CS(=O)(=O)N1CCC(CCn2nc(Cc3cccc4ccccc34)c3c(N)ncnc23)CC1] | 99
5 | CC(C(=O)Nc1ccc2oc(-c3ccncc3)nc2c1)c1ccccc1 (stereo not drawn) [MMV688471, CC(C(=O)Nc1ccc2oc(nc2c1)-c1ccncc1)c1ccccc1] | 67
6 | CC(Oc1cccc(Cl)c1)C(=O)Nc1ccc2oc(-c3ccncc3)nc2c1 (stereo not drawn) [MMV688472, CC(Oc1cccc(Cl)c1)C(=O)Nc1ccc2oc(nc2c1)-c1ccncc1] | 71
7 | COc1cc(C2=NCCN2)ccc1-n1cc(-c2cccc(C3=NCCN3)c2)nn1 [MMV688474, COc1cc(ccc1n2cc(nn2)c3cccc(c3)C4=NCCN4)C5=NCCN5] | 105
8 | CC(=O)NCC1CN(c2ccc(-c3ccc(CO)cc3)c(F)c2)C(=O)O1 (stereo not drawn) [MMV688508, CC(=O)NCC1CN(C(=O)O1)c2ccc(c(F)c2)c3ccc(CO)cc3] | 81
9 | O=C(OCc1ccccc1)N1CCC(c2cc(-c3ccncc3)c(-c3ccc(F)cc3)[nH]2)CC1 [MMV688509, Fc1ccc(cc1)-c1[nH]c(cc1-c1ccncc1)C1CCN(CC1)C(=O)OCc1ccccc1] | 85
10 | CC(C)(C)C(=O)N(CCCCCCN1C[C@H](O)[C@@H](O)[C@H](O)[C@H]1CO)C1CCCCCC1 [MMV688543, CC(C)(C)C(=O)N(CCCCCCN1C[C@H](O)[C@@H](O)[C@H](O)[C@H]1CO)C2CCCCCC2] | 107
11 | COc1ccc(C2=NCCN2)cc1-c1cn(-c2cccc(C3=NCCN3)c2)nn1 [MMV688547, COc1ccc(cc1c2cn(nn2)c3cccc(c3)C4=NCCN4)C5=NCCN5] | 77
12 | CC(C)(C)n1nc(-c2ccccc2)c2c(N)ncnc21 [MMV688548, CC(C)(C)n1nc(-c2ccccc2)c2c(N)ncnc12] | 81
13 | Cc1nn(C(=O)Nc2cccc(C(F)(F)F)c2)c(C)c1Sc1ncccn1 [MMV688552, CC(C(SC1=NC=CC=N1)=C2C)=NN2C(NC3=CC=CC(C(F)(F)F)=C3)=O] | 96
14 | O=C(NCc1ccoc1)N1CCN(Cc2ccc3c(c2)OCO3)CC1 [MMV688553, O=C(NCc1cocc1)N2CCN(Cc3ccc4OCOc4c3)CC2] | 98
15 | CNc1snc(C)c1C(=O)NCCOc1ccc(OC)cc1 [MMV688554, CNc1snc(C)c1C(=O)NCCOc2ccc(OC)cc2] | 92
16 | O=C(NCc1ccco1)N1CCN(Cc2ccc(Cl)s2)CC1 [MMV688555, Clc1ccc(CN2CCN(CC2)C(=O)NCc3occc3)s1] | 103
17 | NCC(c1cccs1)S(=O)(=O)c1ccccc1 (stereo not drawn) [MMV688557, NCC(c1cccs1)S(=O)(=O)c2ccccc2] | 99
18 | CN1CCC(c2cc(-c3ccncc3)c(-c3ccc(F)cc3)[nH]2)CC1 [MMV688703, CN1CCC(CC1)c1cc(c([nH]1)-c1ccc(F)cc1)-c1ccncc1] | 68
19 | Cc1cc2nc(NC(=O)C(C)(C)C)nc(Cl)c2n1Cc1ccc(Cl)cc1 [MMV688704, Cc1cc2nc(NC(=O)C(C)(C)C)nc(Cl)c2n1Cc1ccc(Cl)cc1] | 88
20 | CO/N=C(\C(=O)OC)c1ccccc1CO/N=C(\C)c1cccc(C(F)(F)F)c1 [MMV688754, CO\N=C(/C(=O)OC)\c1ccccc1CO\N=C(/C)\c2cccc(c2)C(F)(F)F] | 100
21 | O=[N+]([O-])c1cn2c(n1)OC[C@@H](OCc1ccc(OC(F)(F)F)cc1)C2 [MMV688755, [O-][N+](=O)c1cn2C[C@@H](COc2n1)OCc3ccc(OC(F)(F)F)cc3] | 95
22 | CC(=O)NC[C@H]1CN(c2ccc(N3CCSCC3)c(F)c2)C(=O)O1 [MMV688756, CC(=O)NC[C@H]1CN(C(=O)O1)c2ccc(N3CCSCC3)c(F)c2] | 106
23 | c1ccc(-c2[nH]c3ccccc3c2C(c2ccccn2)N2CCCC2)cc1 (stereo not drawn) [MMV688762, C1CCN(C1)C(c2ccccn2)c3c([nH]c4ccccc34)c5ccccc5] | 108
24 | CNc1nnc(Sc2cnn(-c3ccccc3)c(=O)c2Cl)s1 [MMV688763, CNc1nnc(SC2=C(Cl)C(=O)N(N=C2)c3ccccc3)s1] | 49
25 | COc1ccc(-c2onc(C(F)(F)F)c2-c2ccc(Cl)cc2)c(O)c1 [MMV688766, COc1ccc(c(O)c1)c2onc(c2c3ccc(Cl)cc3)C(F)(F)F] | 88
26 | Cc1ccccc1C(=O)N1N=C(Nc2ccccc2)SC1(C)C [MMV688771, Cc1ccccc1C(=O)N2N=C(Nc3ccccc3)SC2(C)C] | 97
27 | O=C(N[C@H](Cc1ccccc1)C(=O)Nc1ccccc1N1CCOCC1)c1cccs1 [MMV688845, O=C(Nc1ccccc1N2CCOCC2)[C@@H](Cc3ccccc3)NC(=O)c4cccs4] | 94

Row | SMILES | viability at 10 µM [%]
28 | Cc1ccccc1CN1CCC(O)(c2ccc(Cl)c(C(F)(F)F)c2)CC1 [MMV688846, Cc1ccccc1CN2CCC(O)(CC2)c3ccc(Cl)c(c3)C(F)(F)F] | 98
29 | CC(C)(C)n1nc(Cc2ccc(F)c(Cl)c2)c2c(N)ncnc21 [MMV688852, CC(C)(C)n1nc(Cc2ccc(F)c(Cl)c2)c2c(N)ncnc12] | 87
30 | CCOc1ccc2cc(-c3nn(C(C)(C)C)c(N)c3C(N)=O)cnc2c1 [MMV688853, CCOc1ccc2cc(cnc2c1)c3nn(c(N)c3C(=O)N)C(C)(C)C] | 99
31 | CCOc1ccc2cc(-c3nn(CC4CCN(C)CC4)c4ncnc(N)c34)ccc2c1 [MMV688854, CCOc1ccc2cc(ccc2c1)c3nn(CC4CCN(C)CC4)c5ncnc(N)c35] | 33
32 | CN1CCN(c2cc(-c3ccc(F)cc3)nc(-c3ccncc3)n2)CC1 [MMV688888, CN1CCN(CC1)c2cc(nc(n2)c3ccncc3)c4ccc(F)cc4] | 92
33 | Clc1ccc(CCNc2cc(-c3ccccc3)nc3ncnn23)cc1 [MMV688889, Clc1ccc(CCNc2cc(nc3ncnn23)c4ccccc4)cc1] | 74
34 | COc1cc(Br)cc2cc(C(=O)Nc3cccc(C(F)(F)F)c3)c(=O)oc12 [MMV688891, COc1cc(Br)cc2C=C(C(=O)Nc3cccc(c3)C(F)(F)F)C(=O)Oc12] | 96
35 | OC[C@H]1O[C@@H](n2c3ccc(Cl)cc3c3c(-c4cc5ccccc5o4)ncnc32)C(O)[C@H]1O (stereo partly drawn) [MMV688921, OC[C@H]1O[C@H](C(O)[C@H]1O)n2c3ccc(Cl)cc3c4c(ncnc24)c5oc6ccccc6c5] | 97
36 | CCc1nn(C)c(C(=O)NCc2ccc(Oc3ccc(C)cc3)cc2)c1Cl [MMV688934, CCc1nn(C)c(C(=O)NCc2ccc(Oc3ccc(C)cc3)cc2)c1Cl] | 101
37 | O=C(c1ccco1)N(CCCn1ccnc1)c1nc2c(Cl)cccc2s1 [MMV688936, Clc1cccc2sc(nc12)N(CCCn3ccnc3)C(=O)c4occc4] | 92
38 | CCOc1ccc(-c2nc(CNCCc3ccc(F)cc3)cs2)cc1 [MMV688938, CCOc1ccc(cc1)c2nc(CNCCc3ccc(F)cc3)cs2] | 63
39 | Cc1ccc2nc(C)c(-c3ccn(Cc4ccccc4)n3)n2c1 [MMV688939, Cc1ccc2nc(C)c(c3ccn(Cc4ccccc4)n3)n2c1] | 101
40 | COc1cc(CN2CCC3(C=Cc4ccccc43)CC2)cc2c1OCO2 [MMV688941, COc1cc(CN2CCC3(CC2)C=Cc4ccccc34)cc5OCOc15] | 114
41 | CC(C)(C)C(O)C(Oc1ccc(-c2ccccc2)cc1)n1cncn1 (stereo not drawn) [MMV688942, CC(C)(C)C(O)C(Oc1ccc(cc1)c2ccccc2)n3cncn3] | 79
42 | CC1COC(Cn2cncn2)(c2ccc(Oc3ccc(Cl)cc3)cc2Cl)O1 (stereo not drawn) [MMV688943, CC1COC(Cn2cncn2)(O1)c3ccc(Oc4ccc(Cl)cc4)cc3Cl] | 100
43 | Cc1cc(NC(=O)c2ccc(Oc3ccc(Cl)cc3O)o2)no1 [MMV688955, Cc1cc(NC(=O)c2ccc(Oc3ccc(Cl)cc3O)o2)no1] | 88
44 | CCc1cc(=O)n(C)c(SC(C)C(=O)Nc2ccc(F)cc2)n1 (stereo not drawn) [MMV688980, CCC1=CC(=O)N(C)C(=N1)SC(C)C(=O)Nc2ccc(F)cc2] | 101
45 | Clc1ccc(CN2CCN(C3=NCCN3)CC2)cc1Cl [MMV689060, Clc1ccc(CN2CCN(CC2)C3=NCCN3)cc1Cl] | 101
46 | CC(=O)Nc1ccc(-c2noc(CC3CCCN(Cc4cccc(F)c4C)C3)n2)cc1 (stereo not drawn) [MMV689061, CC1=C(F)C=CC=C1CN2CCCC(CC3=NC(C4=CC=C(NC(C)=O)C=C4)=NO3)C2] | 92
47 | FC(F)(F)c1ccc(N(c2cccnc2)C2CCN(c3ccc(C(F)(F)F)cn3)CC2)cc1 [MMV689243, FC(F)(F)c1ccc(cc1)N(C2CCN(CC2)c3ccc(cn3)C(F)(F)F)c4cccnc4] | 103
48 | O=C([C@@H](c1ccc(Cl)cc1)c1cccnc1)N1CCN(c2ccc(C(F)(F)F)cc2)CC1 [MMV689244, FC(F)(F)c1ccc(cc1)N2CCN(CC2)C(=O)[C@@H](c3ccc(Cl)cc3)c4cccnc4] | 108
49 | Nc1ncnc2c1ncn2C[C@@H](O)[C@@H](O)C(=O)O [MMV689255, Nc1ncnc2c1ncn2C[C@@H](O)[C@@H](O)C(=O)O] | 111
50 | CC(c1cc(Cl)cc(Cl)c1)N(C)c1ncc2c(N)nc(N)nc2n1 (stereo not drawn) [MMV689437, CC(N(C)c1ncc2c(N)nc(N)nc2n1)c3cc(Cl)cc(Cl)c3] | 98
51 | CNc1cc(C)nc(C2CN(C(=O)c3n[nH]c4ccccc34)CCO2)c1 (stereo not drawn) [MMV689709, O=C(N1CC(C2=CC(NC)=CC(C)=N2)OCC1)C3=NNC4=C3C=CC=C4] | 87
52 | COc1ccc(Oc2ccc([C@@H](C)N(C)c3ncc4c(N)nc(N)nc4n3)cc2)cc1 [MMV690102, COc1ccc(Oc2ccc(cc2)[C@@H](C)N(C)c3ncc4c(N)nc(N)nc4n3)cc1] | 42
53 | C[C@H](c1ccc2c(c1)CCCC2)N(C)c1ncc2c(N)nc(N)nc2n1 [MMV690103, C[C@@H](N(C)c1ncc2c(N)nc(N)nc2n1)c3ccc4CCCCc4c3] | 26
54 | CCc1ccc(C(NCc2nc(N)nc(N(C)C)n2)C(C)C)cc1 (stereo not drawn) [MMV1019989, CCc1ccc(cc1)C(NCc2nc(N)nc(n2)N(C)C)C(C)C] | 92
